The subject of data set [1] is inflammatory cells in bronchoalveolar lavage fluid. Nature of the data set: Inflammatory cell counts in bronchoalveolar lavage fluid (Diff-Quick staining). As to conditions: asthma-induced mice. The format is in vivo, Balb/c female mice. As for the experimental part:
(§1) To prepare bronchial asthma-induced experimental animals, six-week-old Balb/c female mice of mean weight about 20 g were used. After one week of adaptation, individuals which had no observed abnormality on a basic physical examination were targeted. 200 μL of phosphate buffered saline (PBS)(pH 7.4) in which 2 mg of aluminum hydroxide (A8222, Sigma, St. Louis, Mo.) and 20 μg of ovalbumin (A5503, Sigma, St. Louis, Mo.) were suspended was injected into the peritoneal cavity at two-week intervals to result in sensitization. On days 28 to 30 after the first intraperitoneal administration of ovalbumin, inhalation challenge was performed for 30 min with 1% ovalbumin using an ultrasonic atomizer. 24 hours after the last antigen administration, airway hyperresponsiveness was measured. After 24 hours, a lethal dose of pentobarbital (Entobar®, Hanlim Pharm Co., Ltd.) was administered, body weight measurement and bronchotomy were performed, and bronchoalveolar lavage was performed with a total 1.2 mL of physiological saline, and then, samples were collected. […] Eight white mice were used for each group. Experimental groups for homoegonol were a group (hE7.5) in which animals were orally administered with 7.5 mg/kg homoegonol 1 hour prior to ovalbumin inhalation, a group (hE15) in which animals were orally administered with 15 mg/kg homoegonol 1 hour prior to ovalbumin inhalation, and a group (hE30) in which animals were orally administered with 30 mg/kg homoegonol 1 hour prior to ovalbumin inhalation, and five white mice were used for each group.
Bronchoalveolar lavage fluid was collected from individuals of each experimental group in <Example 2> and right after the collection, fluid was stained with trypan blue. The number of total cells except dead cells was calculated using a hemocytometer. Then, Diff-Quick staining (Sysmex, Swizerland) was performed after smear preparation with Cytospin II, and eosinophils and other inflammatory cells were differentially counted.
To examine the effect of homoegonol on asthma, variation in the numbers of asthma-related inflammatory cells was measured according to the method in <Experimental Example 3>.

A further data set deals with IL-17. Nature of the data set: IL-17 in bronchoalveolar lavage fluid. The format is in vivo, Balb/c female mice. The following applies: asthma-induced mice, homoegonol study; 3 mg/kg PO. As to the method: as §1
(§2) To examine the effect of homoegonol on airway remodeling, generation of TGF-β1 and IL-17 in bronchoalveolar lavage fluid was measured.

Data set [2] can be described thus: Body weight in asthma-induced mice. The format is in vivo, Balb/c female mice. As to conditions: 3 mg/kg PO 1 hour prior to ovalbumin inhalation. As for the experimental part: as §1
To determine an effect of styraxlignolide A on reduction in body weight in asthma-induced mice, body weight of each mouse prepared in Example 2 was measured. For statistical analyses for all measurements, means and standard errors (mean±S.E.) according to a number of variables were calculated, and comparison between each group was analyzed by performing a Mann-whitney U test using SPSS 10.0. Statically significance was accepted at p<0.05.
To determine an effect of homoegonol on reduction in body weight in asthma-induced mice, body weight of each mouse prepared in Example 2 was measured. For statistical analyses for all measurements, means and standard errors (mean±S.E.) according to a number of variables were calculated, and comparison between each group was analyzed by performing a Mann-whitney U test using SPSS 10.0. Statically significance was accepted at p<0.05.

The next data set has as its system ovalbumin-specific IgE. Nature of the data set: IgE levels in serum and bronchoalveolar lavage fluid (ELISA). As to conditions: asthma-induced mice, homoegonol study, 3 mg/kg PO. The format is in vivo, Balb/c female mice. (An ELISA detects its analyte on a solid surface through an enzyme-linked reagent.)
The subject of data set [3] is goblet cells. The data set is described as follows: Ratio of goblet cells to bronchial epithelial cells (PAS staining). The following applies: asthma-induced mice, styraxlignolide A study; 3 mg/kg PO 1 hour prior to ovalbumin inhalation. Format: in vivo, Balb/c female mice. As for the experimental part:
as §1
Lungs removed from each individual were subjected to conventional formalin fixation and paraffin embedding, and permanent section slides of 4 μm thickness were prepared, and periodic acid Schiff (PAS) staining was performed to determine goblet cells. Proliferation of goblet cells was assessed by measuring the ratio of goblet cells to bronchial epithelial cells.
In accordance with the method in <Experimental Example 7-2>, the ratio of goblet cells which were determined by periodic acid-Schiff staining to bronchial epithelial cells were measured to assess proliferation of goblet cells.

Data set [4] deals with alanine aminotransferase (ALT) and aspartate aminotransferase (AST) in serum. The format is in vivo. As to conditions: mouse, in vivo, po, 3 mg/kg. As for the experimental part:
as §1
To examine liver toxicity of styraxlignolide A, a commercially available ELISA kit (BECKMAN Coulter, Inc., Fullerton, Calif., USA) was used to measure alanine aminotransferase (ALT) and aspartate aminotransferase (AST) in serum.

Data set [5] has as its system goblet cells. The data set is described as follows: Ratio of goblet cells to bronchial epithelial cells (PAS staining). Format: in vivo, Balb/c female mice. As to conditions: asthma-induced mice, homoegonol study, 3 mg/kg PO.
Data set [6] deals with fibrosis in subsegmental bronchi. Nature of the data set: Fibrosis in subsegmental bronchi (Masson's trichrome staining). Format: in vivo, Balb/c female mice. The following applies: asthma-induced mice, styraxlignolide A study; 3 mg/kg PO 1 hour prior to ovalbumin inhalation. As for the experimental part:
as §1

Data set [7] concerns airway hyperresponsiveness. The data set is described as follows: Airway hyperresponsiveness, Penh by one chamber plethysmography after methacholine inhalation. Format: in vivo, Balb/c female mice. The following applies: asthma-induced mice, homoegonol study, 3 mg/kg PO. As for the experimental part:
as §1, with “Experimental groups for homoegonol were a group (hE7.5) in which animals were orally administered with 7.5 mg/kg homoegonol 1 hour prior to ovalbumin inhalation, a group (hE15) in which animals were orally administered with 15 mg/kg homoegonol 1 hour prior to ovalbumin inhalation, and a group (hE30) in which animals were orally administered with 30 mg/kg homoegonol 1 hour prior to ovalbumin inhalation, and five white mice were used for each group.” left out
The effect of styraxlignolide A on airway hyperresponsiveness caused by asthma occurrence was examined by measuring airway resistance with one chamber plethysmography (All medicus, Seoul, Republic of Korea) and degree of airway resistance was assessed by measuring Penh (enhanced pause) values. The baseline value was measured under a normal respiratory condition, and then, PBS was inhaled using an ultrasonic atomizer for 3 min, and Penh values were measured over 3 min. […] Louis, Mo.) which is used in general methods for diagnosis of bronchial asthma were inhaled and Penh values were measured. Penh value is shown in the following Equation 1, and the resulting Penh value was expressed as a percent increase in Penh after inhalation of each concentration of methacholine. The baseline Penh (saline challenge) was expressed as 100%.
Te: expiratory time (sec), the time from inspiration to the next inspiration
RT: relaxation time, the elapsed time between the beginning of the expiration and the moment when the remaining 30% of the tidal volume has been reached during expiration
PEF: Peak expiration flow
PIF: Peak inspiration flow
To examine the effect of homoegonol on airway hyperresponsiveness caused by asthma occurrence, Penh value was measured according to the method in <Experimental Example 2>.

A further data set concerns TGF-β1. The data set is described as follows: TGF-β1 in bronchoalveolar lavage fluid. Format: in vivo, Balb/c female mice. The following applies: asthma-induced mice, homoegonol study; 3 mg/kg PO. As to the method: as §1, §2
In data set [8] the test system is inflammatory cells in the airway mucosa. Nature of the data set: Inflammatory cell infiltration in airway mucosa, inflammatory index (H&E staining). Format: in vivo, Balb/c female mice. As to conditions: asthma-induced mice, scale 0-4.
For data set [9], the system named is inflammatory cells in bronchoalveolar lavage fluid. Nature of the data set: Inflammatory cell counts in bronchoalveolar lavage fluid (Diff-Quick staining). Format: in vivo, Balb/c female mice. The following applies: asthma-induced mice. The source holds these as a separate data set.
[10] abbreviates: styraxlignolide A study, 3 mg/kg PO 1 hour prior to ovalbumin inhalation.
Where [11] appears, read: homoegonol study, 3 mg/kg PO, 3 mg/kg.
Setting [12] is: homoegonol study, 3 mg/kg PO, bronchoalveolar lavage fluid, 3 mg/kg.

The source of these data is US8980846B2, “Composition containing styraxlignolide A or the aglycone thereof as an active ingredient for preventing or treating asthma” (Korea Research Institute of Bioscience and Biotechnology, priority 2010, dated 2015).

With `C[C@@H]1C[C@H]2[C@@H]3CCC4=CC(=O)C=C[C@]4(C)[C@@]3(F)[C@@H](O)C[C@]2(C)[C@@]1(O)C(=O)CO` [DEXA, dexamethasone], the “Number of cells, Other inflammatory cells” value in data set [1] (homoegonol study, 3 mg/kg PO, bronchoalveolar lavage fluid) is on record as 18.72 ± 2.2919 ×10^3 cells/mouse. Moreover, the “numbers of eosinophils in bronchoalveolar lavage fluid” value in data set [1] (setting [10]) is on record as 41.88±9.08. Besides, the “IL-17 concentrations in bronchoalveolar lavage fluid” value in the data set with IL-17 is 48.8409 ± 4.3738 pg/mL. For the same compound, the body weight is 19.98 ± 0.39 g in data set [2] (homoegonol study) and 20.49 ± 0.29 g in [2] (styraxlignolide A study). Moreover, in the data set on ovalbumin-specific IgE (bronchoalveolar lavage fluid), the “Total IgE level in bronchoalveolar lavage fluid” value is 24.3617 ± 4.8149 ng/mL. Further, in the data set with ovalbumin-specific IgE (serum, Table 2), the “Total serum IgE level” value came out at 9.14 ± 2.0591 µg/mL. In addition, the “ratio of goblet cells to bronchiolar epithelial cells” value in the data set with goblet cells [3] was 34.96±6.86%. Also, the “serum ALT” value in [4] was 274.67±12.12 IU/L. The “serum AST” value in data set [4] is 369.33±31.27 IU/L. Besides, in the data set on goblet cells [5], the “Goblet cells %/bronchial epithelial cell unit” value is on record as 18.7828±5.9397%. For the same compound, the “area of a fibrosis stained region per 100 μm of a basement membrane perimeter” value in [6] worked out at 639.59±106.96 μm^2. Further, the Penh values is 0.4407 ± 0.0422 in data set [7] (methacholine 0 mg/ml), 0.7768 ± 0.1475 in [7] (methacholine 12.5 mg/ml), 0.8900 ± 0.1619 in data set [7] (methacholine 25 mg/ml) and 1.1036 ± 0.4048 in [7] (methacholine 50 mg/ml). Also, in the data set on TGF-β1, the “TGF-β1 concentrations in bronchoalveolar lavage fluid” value was 159.2813 ± 12.9548 pg/mL. For the same compound, the “Inflammatory index, peribronchiolar” value in [8] (setting [11]) amounted to 0.78±0.1315. Further, the “Inflammatory index, perivascular” value in data set [8] (setting [11]) was 0.44±0.1571. This compound also came in with a peribronchiolar inflammatory index in data set [8] (setting [10]) of 1.46±0.26. Also, in [9] (setting [12]), the “Number of cells, Eosinophils” value is reported as 1.32±0.49 ×10^3 cells/mouse. Also, the “Number of cells, Total inflammatory cells” value in data set [9] (setting [12]) is listed as 20.04±4.7744 ×10^3 cells/mouse. Besides, the “numbers of total inflammatory cells in bronchoalveolar lavage fluid” value in data set [9] (setting [10]) came out at 153.48±19.69.
